{
  "source": "patent US6495147B1",
  "about": "(LVMH Recherche, priority 1997, dated 2002)",
  "key": {"[1]": {"tested_on": "normal human keratinocytes", "experiment": "Stimulation of synthesis and secretion of PG and GAG by keratinocytes (radioactive tracer incorporation)", "assay_type": "cell-based", "conditions": "for GAG secreted / A, stimulating activity on the secretion of GAG: 48 h; for A, stimulating activity on the secretion of GAG: versus untreated control", "procedure": "These tracers enable the amount of PG and GAG to be measured.\nThere are two families of GAG which differ in their sugar chains. One is based on a sequence of glucosamines and the other is based on a sequence of galactosamines. It is for this reason that two different radioactive tracers were used, namely ^3H-D-glucosamine and ^14C-D-galactosamine, which become incorporated in the osidic chains of PG and GAG during their synthesis.\nThe cells are incubated for 24 h at 37° C. in a humidity-saturated atmosphere containing 5% of CO2.\n(§1) The cultures are then incubated for 48 h at 37° C. in a humidity-saturated atmosphere containing 5% of CO2.\nThe enzyme is then inactivated by heating for 10 min in boiling water, after which the mixture is brought back to room temperature. A selective precipitation of the GAG is effected with 40 μl of cetylpyridinium chloride (CPC at 100 mg/ml, Sigma) in the presence of 40 μl of a mixture of hyaluronic acid (Fluka), dermatan sulfate (Fluka) and chondroitin sulfate (Sigma), all at 2 mg/ml (amounting to the addition of a solution containing 6 mg/ml of non-radioactive GAG). These non-radioactive GAG are added to trigger the precipitation and entrain the radioactive GAG (which on their own would not be in a sufficient amount to precipitate) into the precipitate. The precipitate obtained is washed twice with 400 μl of a solution of CPC at 10 mg/ml, and then solubilized in 500 μl of methanol (Merck). The radioactivity is finally measured by liquid scintillation with 10 ml of scintillating liquid (Packard).\nIt should be noted when processing the results that the GAG whose synthesis has been measured have two origins. They originate both from the synthesized and secreted GAG and from the synthesized and secreted PG (which have undergone hydrolysis with pronase for the purposes of the assay).\nIn order to reduce the radioactivity to a unit amount of cellular material, the cellular proteins are assayed. After removal of the culture medium and two rinses with a phosphate buffer of pH 7.2 (PBS, Gibco), the cellular tapetum in the culture wells is dissolved in 30 μl of 0.1 M NaOH at 37° C. and the plates are agitated for 30 min at 37° C. 200 μl of bicinchoninic acid/Cu^++ sulfate reagent (Sigma kit) are added to each well. The plates are incubated for 30 min at 37° C. in the dark and the proteins which it is desired to assay reduce the cupric ions (Cu^++) of the copper sulfate to cuprous ions (Cu^+). The latter and the bicinchoninic acid form chromogenic complexes absorbing at 570 nm, which is the wavelength used to measure the optical density. In parallel, a calibration series is prepared under the same experimental conditions with 0 to 100 μg/well of bovine serum albumin (BSA, Sigma) in order to translate the optical densities (OD) obtained with the cellular proteins into Stg of BSA equivalent per well.\nThe amounts of GAG measured will be reduced to a unit amount of protein (expressed in jig of BSA equivalent).\nThe stimulating activity “A” on the secretion of GAG is calculated in the form of a percentage according to the following formula: [formula]"}, "[2]": {"tested_on": "normal human keratinocytes", "experiment": "Cytotoxicity / cell viability in keratinocyte cultures", "assay_type": "cell-based", "conditions": "concentrations of 1.5 and 10 mM", "procedure": "as §1"}, "[3]": {"conditions": "D-xylose 1 mM, tracer 3H-D-glucosamine"}, "[4]": {"conditions": "D-xylose 1 mM, tracer 14C-D-galactosamine"}, "[5]": {"conditions": "D-xylose 5 mM, tracer 3H-D-glucosamine"}, "[6]": {"conditions": "D-xylose 10 mM, tracer 3H-D-glucosamine"}, "[7]": {"conditions": "D-xylose 10 mM, tracer 14C-D-galactosamine"}},
  "data": [
    {"compound": "O=C[C@H](O)[C@@H](O)[C@H](O)CO", "note": "[D-xylose]", "values": [
      {"measurement": "GAG secreted", "setting": "[1]; [3]", "result": "2148 ± 160", "unit": "dpm/μg protein"},
      {"measurement": "A, stimulating activity on the secretion of GAG", "setting": "[1]; [3]", "result": 55, "unit": "%"},
      {"measurement": "GAG secreted", "setting": "[1]; [4]", "result": "136 ± 12", "unit": "dpm/μg protein"},
      {"measurement": "A, stimulating activity on the secretion of GAG", "setting": "[1]; [4]", "result": 34, "unit": "%"},
      {"measurement": "GAG secreted", "setting": "[1]; [5]", "result": "2661 ± 202", "unit": "dpm/μg protein"},
      {"measurement": "A, stimulating activity on the secretion of GAG", "setting": "[1]; [5]", "result": 92, "unit": "%"},
      {"measurement": "A, stimulating activity on the secretion of GAG", "setting": "[1]; D-xylose 5 mM, tracer 14C-D-galactosamine", "result": 105, "unit": "%"},
      {"measurement": "GAG secreted", "setting": "[1]; [6]", "result": "2950 ± 262", "unit": "dpm/μg protein"},
      {"measurement": "A, stimulating activity on the secretion of GAG", "setting": "[1]; [6]", "result": 113, "unit": "%"},
      {"measurement": "GAG secreted", "setting": "[1]; [7]", "result": "250 ± 28", "unit": "dpm/μg protein"},
      {"measurement": "A, stimulating activity on the secretion of GAG", "setting": "[1]; [7]", "result": 145, "unit": "%"},
      {"measurement": "synthesis and extracellular secretion of PG and GAG by the keratinocytes of the human epidermis", "setting": "[1]; irrespective of the radioactive tracer used", "result": "very strongly stimulates"},
      {"measurement": "cytotoxicity", "setting": "[2]", "result": "non-cytotoxic"}
    ]}
  ]
}
